Experimental data from PMC8026769 (Molecular microbiology, 2020).

What was measured:
[1] = target: T1, LpThi5 (LpThi5-His6; Lpg1565) (Legionella pneumophila, UniProt Q5ZV75)
[2] = target: T1, LpThi5 (LpThi5-His6; Lpg1565); remark: listed apart in the source

T1 sequence (Q5ZV75 whole entry, looked up): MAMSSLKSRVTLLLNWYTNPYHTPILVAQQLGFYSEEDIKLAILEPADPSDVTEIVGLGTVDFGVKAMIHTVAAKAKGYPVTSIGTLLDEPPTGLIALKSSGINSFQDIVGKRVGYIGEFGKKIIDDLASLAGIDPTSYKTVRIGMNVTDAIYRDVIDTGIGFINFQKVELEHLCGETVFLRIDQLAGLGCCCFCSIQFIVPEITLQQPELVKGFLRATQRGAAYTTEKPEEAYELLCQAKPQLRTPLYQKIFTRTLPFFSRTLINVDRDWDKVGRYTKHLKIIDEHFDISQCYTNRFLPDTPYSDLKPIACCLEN

In the case of `Cc1ncc(CO)c(N)n1` [HMP, 2-methyl-4-amino-5-hydroxymethylpyrimidine], the “bioassay, HPLC and MALDI-TOF MS of released product” value [1] is reported as “MALDI-TOF MS identified the active molecule as HMP”.

For `Cc1ncc(COP(=O)(O)O)c(C=O)c1O` [PLP, pyridoxal-5’-phosphate], the PLP occupancy [2] was 63 ± 2%.
